The target in test [1] is T1, human adenosine A2a receptor (Homo sapiens, UniProt P29274).
T1 construct: expressed in transfected cells; host or cells: CHO-K1
Description: Adenosine A2a Receptor Functional Assay (A2AGAL2). To be noted: CHO-K1 cells, cAMP inducible beta-galactosidase reporter, 15 nM NECA agonist challenge. It is filed as cell-based. As to the method:
(§1) To initiate the functional assay, cryopreserved CHO-K1 cells overexpressing the human adenosine A2a receptor and containing a cAMP inducible beta-galactosidase reporter gene were thawed, centrifuged, DMSO containing media removed, and then seeded with fresh culture media into clear 384-well tissue culture treated plates (BD #353961) at a concentration of 10K cells/well. Prior to assay, these plates were cultured for two days at 37° C., 5% CO2, 90% Rh. On the day of the functional assay, culture media was removed and replaced with 45 uL assay medium (Hams/F-12 Modified (Mediatech #10-080CV) supplemented w/0.1% BSA). Test compounds were diluted and 11 point curves created at a 1000× concentration in 100% DMSO. Immediately after addition of assay media to the cell plates, 50 nL of the appropriate test compound antagonist or agonist control curves were added to cell plates using a Cartesian Hummingbird. Compound curves were allowed to incubate at room temperature on cell plates for approximately 15 minutes before addition of a 15 nM NECA (Sigma E2387) agonist challenge (5 uL volume). A control curve of NECA, a DMSO/Media control, and a single dose of Forskolin (Sigma F3917) were also included on each plate. After additions, cell plates were allowed to incubate at 37° C., 5% CO2, 90% Rh for 5.5-6 hours. After incubation, media was removed, and cell plates were washed 1×50 uL with DPBS w/o Ca & Mg (Mediatech 21-031-CV). Into dry wells, 20 uL of 1× Reporter Lysis Buffer (Promega E3971 (diluted in dH2O from 5× stock)) was added to each well and plates frozen at −20° C. overnight. For β-galactosidase enzyme calorimetric assay, plates were thawed out at room temperature and 20 μL 2× assay buffer (Promega) was added to each well. Color was allowed to develop at 37° C., 5% CO2, 90% Rh for 1-1.5 h or until reasonable signal appeared. The calorimetric reaction was stopped with the addition of 60 μL/well 1M sodium carbonate. Plates were counted at 405 nm on a SpectraMax Microplate Reader (Molecular Devices). Data was analyzed in Microsoft Excel and IC/EC50 curves were fit using a standardized macro.

Test [2] has as its target T2, human adenosine A1 receptor (Homo sapiens, UniProt P30542).
T2 construct: expressed in transfected cells; host or cells: CHO-K1
T2 sequence (P30542 1-326): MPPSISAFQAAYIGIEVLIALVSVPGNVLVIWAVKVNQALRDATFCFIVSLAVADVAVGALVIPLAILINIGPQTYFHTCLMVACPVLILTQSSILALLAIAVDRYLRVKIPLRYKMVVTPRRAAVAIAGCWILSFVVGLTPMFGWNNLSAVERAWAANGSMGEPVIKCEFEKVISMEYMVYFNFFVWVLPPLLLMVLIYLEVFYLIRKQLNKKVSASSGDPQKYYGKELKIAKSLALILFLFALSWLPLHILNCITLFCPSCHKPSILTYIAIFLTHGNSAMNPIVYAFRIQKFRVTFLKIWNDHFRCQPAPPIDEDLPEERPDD
Description: Adenosine A1 Receptor Functional Assay (A1GAL2). It is filed as cell-based. To be noted: CHO-K1 cells, cAMP inducible beta-galactosidase reporter, 4nM r-PIA/1 uM Forskolin agonist challenge. As to the method:
as §1, with “A1” for “A2a”, “4nM r-PIA” for “15 nM NECA”, “P4532)/1 uM Forskolin (Sigma F3917)” for “E2387)”, “r-PIA in 1 uM Forskolin,” for “NECA,”, “Forskolin” for “Forskolin (Sigma F3917)”

Counter-ions that a name gives are not always drawn. Where only a bound is given, the exact number is not on record here.

One may read the Ki as a measure of affinity in units of concentration, obtained from inhibition or displacement.

T1 sequence (P29274 whole entry): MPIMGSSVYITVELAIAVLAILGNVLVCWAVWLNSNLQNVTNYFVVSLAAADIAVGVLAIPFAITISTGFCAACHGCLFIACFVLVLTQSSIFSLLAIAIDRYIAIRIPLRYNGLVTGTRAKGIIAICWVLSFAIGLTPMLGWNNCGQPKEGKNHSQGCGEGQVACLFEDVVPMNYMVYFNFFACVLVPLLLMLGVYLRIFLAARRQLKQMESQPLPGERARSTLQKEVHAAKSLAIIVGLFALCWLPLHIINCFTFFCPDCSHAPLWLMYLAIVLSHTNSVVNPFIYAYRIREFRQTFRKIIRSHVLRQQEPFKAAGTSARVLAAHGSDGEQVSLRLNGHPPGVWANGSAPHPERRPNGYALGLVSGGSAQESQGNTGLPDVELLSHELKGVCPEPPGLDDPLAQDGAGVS

Consider `C[C@@H]1CN(C(=O)c2cc3c(N)nc(-c4cccc(C#N)c4)nc3s2)C[C@H](C)O1` [Example 1, 3-[4-Amino-6-(2,6-dimethyl-morpholine-4-carbonyl)-thieno[2,3-d]pyrimidin-2-yl]-benzonitrile], for which the Ki came to 184 nM in test [1] and 598 nM in test [2].
`Nc1nc(-c2nccs2)nc2sc(C(=O)N3CCOCC3)cc12` [Example 4, (4-Amino-2-thiazol-2-yl-thieno[2,3-d]pyrimidin-6-yl)-morpholin-4-yl-methanone]: the results for the Ki in test [1] and in test [2] were 80.9 nM and 1430 nM, respectively.
As to `Nc1nc(-c2ncco2)nc2sc(C(=O)N3CCOCC3)cc12` [Example 6, (4-Amino-2-oxazol-2-yl-thieno[2,3-d]pyrimidin-6-yl)-morpholin-4-yl-methanone], the Ki was 361 nM in test [1] and above 10000 nM in test [2].
The like results for `Cc1csc(-c2nc(N)c3cc(C(=O)NCCN4CCS(=O)(=O)CC4)sc3n2)n1` [Example 7, 4-Amino-2-(4-methyl-thiazol-2-yl)-thieno[2,3-d]pyrimidine-6-carboxylic acid[2-(1,1-dioxo-1-thiomorpholin-4-yl)-ethyl]-amide] were, in that order, 193 nM and around 927 nM.
The like results for `Cc1csc(-c2nc(N)c3cc(C(=O)N4CCN(c5ccncc5)CC4)sc3n2)n1` [Example 8, [4-Amino-2-(4-methyl-thiazol-2-yl)-thieno[2,3-d]pyrimidin-6-yl]-(4-pyridin-4-yl-piperazin-1-yl)-methanone] were, in that order, 222 nM and above 1070 nM.
On to `CC(C)(C)N1CCN(C(=O)c2cc3c(N)nc(-c4cccc(C#N)c4)nc3s2)CC1` [Example 9, 3-[4-Amino-6-(4-tert-butyl-piperazine-1-carbonyl)-thieno[2,3-d]pyrimidin-2-yl]-benzonitrile], for which the inhibitory constant (Ki) turned out to be 94.2 nM in test [1] and 603 nM in test [2].
Turning to `N#Cc1cccc(-c2nc(N)c3cc(C(=O)NCCN4CCOCC4)sc3n2)c1` [Example 10, 4-Amino-2-(3-cyano-phenyl)-thieno[2,3-d]pyrimidine-6-carboxylic acid(2-morpholin-4-yl-ethyl)-amide], the values for the Ki in test [1] and in test [2] were 34.7 nM and 52.6 nM, respectively.
On to `Cc1csc(-c2nc(N)c3cc(C(=O)NCCc4cccnc4)sc3n2)n1` [Example 11, 4-Amino-2-(4-methyl-thiazol-2-yl)-thieno[2,3-d]pyrimidine-6-carboxylic acid(2-pyridin-3-yl-ethyl)-amide], for which the inhibition constant (Ki) in test [1] worked out at 17.9 nM; in test [2], 530 nM.
The like results for `Cc1csc(-c2nc(N)c3cc(C(=O)NC4CCOCC4)sc3n2)n1` [Example 12, 4-Amino-2-(4-methyl-thiazol-2-yl)-thieno[2,3-d]pyrimidine-6-carboxylic acid(tetrahydro-pyran-4-yl)-amide] were, in that order, 21.9 nM and 443 nM.
On the same counts, the results for `Nc1nc(-c2ncco2)nc2sc(C(=O)NC3CCOCC3)cc12` [Example 13, 4-Amino-2-oxazol-2-yl-thieno[2,3-d]pyrimidine-6-carboxylic acid(tetrahydro-pyran-4-yl)-amide] are 99.2 nM and above 1000 nM.
In the case of `Nc1nc(-c2ccc(C3CC3)o2)nc2sc(C(=O)NCc3cccnc3)cc12` [Example 14, 4-Amino-2-(5-cyclopropyl-furan-2-yl)-thieno[2,3-d]pyrimidine-6-carboxylic acid(pyridin-3-ylmethyl)-amide], the Ki in test [1] was 1550 nM; in test [2] it was above 610 nM.
The like results for `N#Cc1cccc(-c2nc(N)c3cc(C(=O)NCc4ccccn4)sc3n2)c1` [Example 15, 4-Amino-2-(3-cyano-phenyl)-thieno[2,3-d]pyrimidine-6-carboxylic acid(pyridin-2-ylmethyl)-amide] were, in that order, 29 nM and 113 nM.
Consider `N#Cc1cccc(-c2nc(N)c3cc(C(=O)NCCc4cccnc4)sc3n2)c1` [Example 16, 4-Amino-2-(3-cyano-phenyl)-thieno[2,3-d]pyrimidine-6-carboxylic acid(2-pyridin-3-yl-ethyl)-amide], for which the inhibition constant (Ki) in test [1] was found to be 115 nM; in test [2] it was 467 nM.
On to `Cc1cc(-c2nc(N)c3cc(C(=O)N4CCOCC4)sc3n2)no1` [Example 17, [4-Amino-2-(5-methyl-isoxazol-3-yl)-thieno[2,3-d]pyrimidin-6-yl]-morpholin-4-yl-methanone], for which the results for the inhibition constant (Ki) in test [1] and in test [2] were 528 nM and above 923 nM, respectively.
Regarding `CCN1CCN(C(=O)c2cc3c(N)nc(-c4nc(C)cs4)nc3s2)CC1` [Example 18, [4-Amino-2-(4-methyl-thiazol-2-yl)-thieno[2,3-d]pyrimidin-6-yl]-(4-ethyl-piperazin-1-yl)-methanone hydrochloride], the Ki is 195 nM in test [1] and above 948 nM in test [2].
The like results for `N#Cc1cccc(-c2nc(N)c3cc(C(=O)NCc4cccnc4)sc3n2)c1` [Example 19, 4-Amino-2-(3-cyano-phenyl)-thieno[2,3-d]pyrimidine-6-carboxylic acid(pyridin-3-ylmethyl)-amide] were, in that order, 14.2 nM and 21.9 nM.
With `Cc1csc(-c2nc(N)c3cc(C(=O)NCc4ccc(Cl)nc4)sc3n2)n1` [Example 20, 4-Amino-2-(4-methyl-thiazol-2-yl)-thieno[2,3-d]pyrimidine-6-carboxylic acid(6-chloro-pyridin-3-yl-methyl)-amide hydrochloride], the Ki turned out to be 109 nM in test [1] and 508 nM in test [2].
As for `Cc1cc(-c2nc(N)c3cc(C(=O)NCc4cccnc4)sc3n2)no1` [Example 21, 4-Amino-2-(5-methyl-isoxazol-3-yl)-thieno[2,3-d]pyrimidine-6-carboxylic acid(pyridin-3-ylmethyl)-amide], the Ki in test [1] was found to be 310 nM; in test [2], 26.9 nM.
As for `Cc1csc(-c2nc(N)c3cc(C(=O)N4CCN(C(C)(C)C)CC4)sc3n2)n1` [Example 23, [4-Amino-2-(4-methyl-thiazol-2-yl)-thieno[2,3-d]pyrimidin-6-yl]-(4-tert-butyl-piperazin-1-yl)-methanone], the inhibitory constant (Ki) is 367 nM in test [1] and above 1310 nM in test [2].
The like results for `Nc1nc(-c2ncco2)nc2sc(C(=O)NCc3ccccn3)cc12` [Example 24, 4-Amino-2-oxazol-2-yl-thieno[2,3-d]pyrimidine-6-carboxylic acid(pyridin-2-ylmethyl)-amide] were, in that order, 137 nM and 422 nM.
On the same counts, the results for `Nc1nc(-c2ncco2)nc2sc(C(=O)NCCN3CCOCC3)cc12` [Example 25, 4-Amino-2-oxazol-2-yl-thieno[2,3-d]pyrimidine-6-carboxylic acid(2-morpholin-4-yl-ethyl)-amide] are 287 nM and above 1310 nM.

Source of the values: US20100093714A1, “AMIDES OF THIENO[2,3-d]PYRIMIDINE AND THEIR USE AS ADENOSINE A2a RECEPTOR ANTAGONISTS” (priority 2008, published 2010).
